Here are results for 31 molecules from US8906904B2, “Alkoxy pyrazoles as soluble guanylate cyclase activators” (Boehringer Ingelheim International GmbH, priority 2012, dated 2014).

In data set [1] the target is T1, human soluble guanylate cyclase alpha 1 and beta 1 subunits (sGC) (Homo sapiens, UniProt Q02108+Q02153).
T1 construct: expressed in transfected cells; host or cells: Chinese hamster ovary (CHO) cells, stably transfected
T1 sequence (Q02108 1-690): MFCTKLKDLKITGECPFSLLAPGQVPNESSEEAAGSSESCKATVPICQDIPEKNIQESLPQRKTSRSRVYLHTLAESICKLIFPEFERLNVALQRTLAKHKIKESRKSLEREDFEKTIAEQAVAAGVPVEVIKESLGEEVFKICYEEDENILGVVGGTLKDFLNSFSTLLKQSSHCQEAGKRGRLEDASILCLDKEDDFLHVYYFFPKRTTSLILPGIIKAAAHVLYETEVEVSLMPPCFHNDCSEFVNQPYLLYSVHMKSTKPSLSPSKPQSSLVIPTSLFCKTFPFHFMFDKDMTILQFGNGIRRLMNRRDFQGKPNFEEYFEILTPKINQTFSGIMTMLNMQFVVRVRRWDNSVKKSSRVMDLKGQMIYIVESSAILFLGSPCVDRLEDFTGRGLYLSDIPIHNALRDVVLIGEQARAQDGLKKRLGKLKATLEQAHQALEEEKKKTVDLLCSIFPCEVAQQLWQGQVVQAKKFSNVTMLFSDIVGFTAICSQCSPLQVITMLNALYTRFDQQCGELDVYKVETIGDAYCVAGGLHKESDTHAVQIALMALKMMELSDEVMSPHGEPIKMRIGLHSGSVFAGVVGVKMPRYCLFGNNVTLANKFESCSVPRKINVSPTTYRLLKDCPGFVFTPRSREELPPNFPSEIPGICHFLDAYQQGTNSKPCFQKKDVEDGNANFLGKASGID
T1 sequence (Q02153 1-619): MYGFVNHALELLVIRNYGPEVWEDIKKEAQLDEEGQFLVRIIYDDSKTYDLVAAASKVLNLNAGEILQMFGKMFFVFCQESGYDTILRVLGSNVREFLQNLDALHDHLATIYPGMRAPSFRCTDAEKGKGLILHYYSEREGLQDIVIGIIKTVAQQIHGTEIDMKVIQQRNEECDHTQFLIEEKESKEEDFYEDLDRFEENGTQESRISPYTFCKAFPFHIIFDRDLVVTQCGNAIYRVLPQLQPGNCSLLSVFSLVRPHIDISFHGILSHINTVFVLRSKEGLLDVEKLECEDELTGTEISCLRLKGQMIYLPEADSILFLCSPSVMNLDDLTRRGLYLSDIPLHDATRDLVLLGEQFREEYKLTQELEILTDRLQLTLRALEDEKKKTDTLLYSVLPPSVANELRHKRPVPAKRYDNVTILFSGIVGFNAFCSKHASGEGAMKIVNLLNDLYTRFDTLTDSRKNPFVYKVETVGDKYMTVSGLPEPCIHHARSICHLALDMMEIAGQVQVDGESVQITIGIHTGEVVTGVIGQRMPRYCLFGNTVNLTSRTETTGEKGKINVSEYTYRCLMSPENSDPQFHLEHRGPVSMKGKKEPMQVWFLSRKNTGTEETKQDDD
As to the kind of experiment: sGC cellular activator assay (cGMP, HTRF). It is filed as cell-based. The note with it: CHO cells stably expressing human sGC alpha 1/beta 1, preincubated with 40 microM ODQ; cGMP readout; assay run with and without 50% human serum, Table 2 does not say which. In outline:
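First, CHO-sGC (human α1β1) cells get 1 h ODQ at 40 microM with IBMX and 0.1% BSA. Finally, cGMP is quantified by HTRF and EC50 computed.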

A short description of data set [2]: human liver microsome (HLM) metabolic stability assay. It is filed as in vitro ADME. The note with it: human liver microsomes; % hepatic blood flow calculated from t1/2. In outline: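 Compounds at 1 uM incubated with human liver microsomes plus NADPH at 37° C., sampled at 0, 5, 15, 30 and 60 min into cold acetonitrile and quantified by LC/MS/MS. t½ from the slope of ln % remaining vs time; CLint, CLh and % Qh derived from it (n=1).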

Each structure is given as a SMILES string.

As to `CCOc1c(C(=O)O)cnn1-c1cccc(-c2cccc(C)c2OCc2ccc3c(c2C)CCN(C(=O)C2CCOCC2)C3)n1` [Compound 147, 5-Ethoxy-1-(6-{3-methyl-2-[5-methyl-2-(tetrahydro-pyran-4-carbonyl)-1,2,3,4-tetrahydro-isoquinolin-6-ylmethoxy]-phenyl}-pyridin-2-yl)-1H-pyrazole-4-carboxylic acid], it took 450 nM to reach a half-maximal effect in data set [1] (EC50). For the same molecule, the “HLM (% Qh)” value in data set [2] is less than 24 % Qh.

Turning to `COCCOc1c(C(=O)O)cnn1-c1cccc(-c2cccc(C)c2OCc2ccc3c(c2C)CCN(C2CCCOC2)C3)n1` (centres unmarked) [Compound 149], the 50% effective concentration (EC50) (in general, the concentration that produces a half-maximal response) in data set [1] was 44 nM. For the same molecule, in data set [2], the “HLM (% Qh)” value is given as less than 24 % Qh.

In the case of `COCCOc1c(C(=O)O)cnn1-c1cccc(-c2cccc(C)c2OCc2ccc3c(c2C)CCN(C2CCOC2)C3)n1` (centres unmarked) [Compound 150], it took 91 nM to reach a half-maximal effect in data set [1] (EC50). The “HLM (% Qh)” value in data set [2] is given as less than 24 % Qh.

As for `COCCOc1c(C(=O)O)cnn1-c1cccc(-c2cccc(C)c2OCc2ccc3c(c2C)CCN(C2CCOCC2)C3)n1` [Compound 151], it took 130 nM to reach a half-maximal effect in data set [1] (EC50). For the same molecule, in data set [2], the “HLM (% Qh)” value is less than 24 % Qh.

As to `CCOc1c(C(=O)O)cnn1-c1cccc(-c2cccc(C)c2OCc2ccc3c(c2C)CCN(C[C@@H]2CCCOC2)C3)n1` [Compound 152], the EC50 in data set [1] amounted to 14 nM. Besides, in data set [2], the “HLM (% Qh)” value is recorded as less than 24 % Qh.

In data set [1], `CCOc1c(C(=O)O)cnn1-c1cccc(-c2cccc(C)c2OCc2ccc3c(c2C)CCN(C[C@H]2CCCOC2)C3)n1` [Compound 153] gave an EC50 of 26 nM. For the same molecule, the “HLM (% Qh)” value in data set [2] was less than 24 % Qh.

On to `CCOc1c(C(=O)O)cnn1-c1cccc(-c2cccc(C)c2OCc2ccc3c(c2CC)CCN(C2CCOCC2)C3)n1` [Compound 154], for which a half-maximal response in data set [1] (EC50) required 28 nM. Also, the “HLM (% Qh)” value in data set [2] is on record as less than 24 % Qh.

In data set [1], `CCOc1c(C(=O)O)cnn1-c1cccc(-c2cccc(C)c2OCc2ccc3c(c2C)CCN(C2COC(C)(C)OC2)C3)n1` [Compound 155] had an EC50 of 86 nM. Moreover, the “HLM (% Qh)” value in data set [2] is reported as less than 24 % Qh.

In turn, `CCOc1c(C(=O)O)cnn1-c1cccc(-c2cccc(C)c2OCc2cc3c(c(C(F)(F)F)c2)CN(C2CCOCC2)CC3)n1` [Compound 157] registered an EC50 in data set [1] of 25 nM. For the same molecule, the “HLM (% Qh)” value in data set [2] was 31 % Qh.

In the case of `COc1c(C(=O)O)cnn1-c1cccc(-c2cccc(C)c2OCc2cc3c(c(C(F)(F)F)c2)CN(C2CCOCC2)CC3)n1` [Compound 158], it took 30 nM to reach a half-maximal effect in data set [1] (EC50). Further, the “HLM (% Qh)” value in data set [2] is less than 24 % Qh.

Regarding `CCOc1c(C(=O)O)cnn1-c1cccc(-c2cccc(C)c2OCc2ccc3c(c2F)CCN(C2CCOCC2)C3)n1` [Compound 159], the concentration for a half-maximal effect (EC50) in data set [1] came out at 53 nM. In data set [2], the “HLM (% Qh)” value was less than 24 % Qh.

In data set [1], `COc1c(C(=O)O)cnn1-c1cccc(-c2cccc(C)c2OCc2ccc3c(c2C)CCN(S(C)(=O)=O)C3)n1` [Compound 160] came in with an EC50 of 110 nM. Moreover, the “HLM (% Qh)” value in data set [2] is 44 % Qh.

Molecule `Cc1cc(COc2c(C)cccc2-c2cccc(-n3ncc(C(=O)O)c3OC(C)C)n2)cc2c1CN(C1CCOCC1)CC2` [Compound 161] came in with an EC50 in data set [1] of 14 nM. The “HLM (% Qh)” value in data set [2] was less than 24 % Qh.

In data set [1], `CCOc1c(C(=O)O)cnn1-c1cccc(-c2cccc(C)c2OCc2ccc3c(c2C)CCN(C2CCOCC2)CC3)n1` [Compound 162] had an EC50 of 23 nM. Moreover, the “HLM (% Qh)” value in data set [2] is 26 % Qh.

`CCOc1c(C(=O)O)cnn1-c1cccc(-c2cccc(C)c2OCc2ccc3c(c2C)CCN(CC2CCOC(C)(C)C2)C3)n1` (centres unmarked) [Compound 163] registered an EC50 in data set [1] of 55 nM. Besides, the “HLM (% Qh)” value in data set [2] is listed as less than 24 % Qh.

Take `CCOc1c(C(=O)O)cnn1-c1cccc(-c2cccc(C)c2OCc2ccc3c(c2C)CCN(C2COC2)C3)n1` [Compound 164]: the EC50 in data set [1] stood at 32 nM. In addition, in data set [2], the “HLM (% Qh)” value was less than 24 % Qh.

Regarding `CCOc1c(C(=O)O)cnn1-c1cccc(-c2cccc(C)c2OCc2ccc3c(c2C(F)(F)F)CCN(C2CCOCC2)C3)n1` [Compound 165], the EC50 in data set [1] stood at 11 nM. Also, the “HLM (% Qh)” value in data set [2] is given as less than 24 % Qh.

For `COc1c(C(=O)O)cnn1-c1cccc(-c2cccc(C)c2OCc2ccc3c(c2C(F)(F)F)CCN(C2CCOCC2)C3)n1` [Compound 166], in data set [1], the response was half-maximal at 6.6 nM (EC50). In data set [2], the “HLM (% Qh)” value is 27 % Qh.

For `COc1c(C(=O)O)cnn1-c1cccc(-c2cccc(C)c2OCc2ccc3c(c2C)CCN(C2CCOCC2)C3=O)n1` [Compound 167, 5-Methoxy-1-(6-{3-methyl-2-[5-methyl-1-oxo-2-(tetrahydro-pyran-4-yl)-1,2,3,4-tetrahydro-isoquinolin-6-ylmethoxy]-phenyl}-pyridin-2-yl)-1H-pyrazole-4-carboxylic acid], in data set [1], the EC50 turned out to be 30 nM. The “HLM (% Qh)” value in data set [2] is less than 24 % Qh.

Molecule `CCOc1c(C(=O)O)cnn1-c1cccc(-c2cccc(C)c2OCc2ccc3c(c2C)CCN(CCOCCO)C3)n1` [Compound 168] yielded an EC50 in data set [1] of 580 nM. In addition, the “HLM (% Qh)” value in data set [2] was less than 24 % Qh.

In turn, `CCOc1c(C(=O)O)cnn1-c1cccc(-c2cccc(C)c2OCc2cc(C)c3c(c2)CCN(C2CCOCC2)C3)n1` [Compound 169] returned a half-maximal effective concentration (EC50) in data set [1] of 13 nM. The “HLM (% Qh)” value in data set [2] was less than 24 % Qh.

Molecule `CCOc1c(C(=O)O)cnn1-c1cccc(-c2cccc(C)c2OCc2ccc3c(c2C)CCN(C[C@H]2COCCO2)C3)n1` [Compound 170] returned a concentration for a half-maximal effect (EC50) in data set [1] of 28 nM. Moreover, the “HLM (% Qh)” value in data set [2] was less than 24 % Qh.

Molecule `COc1c(C(=O)O)cnn1-c1cccc(-c2cccc(C)c2OCc2cc(C)c3c(c2)CCN(C2CCOCC2)C3)n1` [Compound 171] displayed an EC50 in data set [1] of 16 nM. The “HLM (% Qh)” value in data set [2] was less than 24 % Qh.

Turning to `CCOc1c(C(=O)O)cnn1-c1cccc(-c2cccc(C)c2OCc2ccc3c(c2C)CCN(CC2CCOCC2)C3)n1` [Compound 172], the EC50 in data set [1] turned out to be 50 nM. The “HLM (% Qh)” value in data set [2] is reported as less than 24 % Qh.

As to `CCOc1c(C(=O)O)cnn1-c1cccc(-c2cccc(C)c2OCc2cc(C)c3c(c2)CCN(C2CCCOC2)C3)n1` (centres unmarked) [Compound 173], the concentration for a half-maximal effect (EC50) in data set [1] amounted to 13 nM. Further, the “HLM (% Qh)” value in data set [2] is less than 24 % Qh.

Regarding `CCOc1c(C(=O)O)cnn1-c1cccc(-c2cccc(C)c2OCc2cc(C)c3c(c2)CCN(C2COC2)C3)n1` [Compound 174], in data set [1], the EC50 stood at 14 nM. Moreover, the “HLM (% Qh)” value in data set [2] is listed as less than 24 % Qh.

In the case of `CCOc1c(C(=O)O)cnn1-c1cccc(-c2cccc(C)c2OCc2ccc3c(c2C)CCN(C2COC2)CC3)n1` [Compound 175], in data set [1], the concentration for a half-maximal effect (EC50) is 40 nM. For the same molecule, in data set [2], the “HLM (% Qh)” value is 31 % Qh.

In the case of `COc1c(C(=O)O)cnn1-c1cccc(-c2cccc(C)c2OCc2ccc3c(c2C)CCN(C2COC2)CC3)n1` [Compound 176], the response in data set [1] was half-maximal at 9.7 nM (EC50). Moreover, in data set [2], the “HLM (% Qh)” value was 28 % Qh.

The molecule `COc1c(C(=O)O)cnn1-c1cccc(-c2cccc(C)c2OCc2ccc3c(c2F)CCN(C2COC2)C3)n1` [Compound 177] registered a concentration for a half-maximal effect (EC50) in data set [1] of 35 nM. For the same molecule, in data set [2], the “HLM (% Qh)” value is less than 24 % Qh.

In data set [1], `COc1c(C(=O)O)cnn1-c1cccc(-c2cccc(C)c2OCc2cc(C)c3c(c2C)CCN(C2COC2)C3)n1` [Compound 178] yielded a concentration for a half-maximal effect (EC50) of 14 nM. Further, the “HLM (% Qh)” value in data set [2] was less than 24 % Qh.

The molecule `CCOc1c(C(=O)O)cnn1-c1cccc(-c2cccc(C)c2OCc2ccc3c(c2C)CCN(C[C@H]2COC(C)(C)O2)C3)n1` [Compound 179] showed a 50% effective concentration (EC50) in data set [1] of 59 nM. Further, in data set [2], the “HLM (% Qh)” value is given as less than 24 % Qh.
